Results taken from article PMC5622079, “Control of leucine-dependent mTORC1 pathway through chemical intervention of leucyl-tRNA synthetase and RagD interaction” (Nature Communications, 2017).

Assays:
[1] = biological target: T1, Leucyl-tRNA synthetase (LRS) (Homo sapiens, UniProt Q9P2J5); assay: HDX-MS (with BC-LI-0198) and thermal shift; type: binding; parameters: gene LARS1; human full-length LRS, N-terminal His9-tag
[2] = biological target: T1, Leucyl-tRNA synthetase (LRS); assay: SPR (Biacore T-200, immobilised His-LRS); type: binding; parameters: gene LARS1; His-LRS WT

T1 sequence (Q9P2J5 whole entry): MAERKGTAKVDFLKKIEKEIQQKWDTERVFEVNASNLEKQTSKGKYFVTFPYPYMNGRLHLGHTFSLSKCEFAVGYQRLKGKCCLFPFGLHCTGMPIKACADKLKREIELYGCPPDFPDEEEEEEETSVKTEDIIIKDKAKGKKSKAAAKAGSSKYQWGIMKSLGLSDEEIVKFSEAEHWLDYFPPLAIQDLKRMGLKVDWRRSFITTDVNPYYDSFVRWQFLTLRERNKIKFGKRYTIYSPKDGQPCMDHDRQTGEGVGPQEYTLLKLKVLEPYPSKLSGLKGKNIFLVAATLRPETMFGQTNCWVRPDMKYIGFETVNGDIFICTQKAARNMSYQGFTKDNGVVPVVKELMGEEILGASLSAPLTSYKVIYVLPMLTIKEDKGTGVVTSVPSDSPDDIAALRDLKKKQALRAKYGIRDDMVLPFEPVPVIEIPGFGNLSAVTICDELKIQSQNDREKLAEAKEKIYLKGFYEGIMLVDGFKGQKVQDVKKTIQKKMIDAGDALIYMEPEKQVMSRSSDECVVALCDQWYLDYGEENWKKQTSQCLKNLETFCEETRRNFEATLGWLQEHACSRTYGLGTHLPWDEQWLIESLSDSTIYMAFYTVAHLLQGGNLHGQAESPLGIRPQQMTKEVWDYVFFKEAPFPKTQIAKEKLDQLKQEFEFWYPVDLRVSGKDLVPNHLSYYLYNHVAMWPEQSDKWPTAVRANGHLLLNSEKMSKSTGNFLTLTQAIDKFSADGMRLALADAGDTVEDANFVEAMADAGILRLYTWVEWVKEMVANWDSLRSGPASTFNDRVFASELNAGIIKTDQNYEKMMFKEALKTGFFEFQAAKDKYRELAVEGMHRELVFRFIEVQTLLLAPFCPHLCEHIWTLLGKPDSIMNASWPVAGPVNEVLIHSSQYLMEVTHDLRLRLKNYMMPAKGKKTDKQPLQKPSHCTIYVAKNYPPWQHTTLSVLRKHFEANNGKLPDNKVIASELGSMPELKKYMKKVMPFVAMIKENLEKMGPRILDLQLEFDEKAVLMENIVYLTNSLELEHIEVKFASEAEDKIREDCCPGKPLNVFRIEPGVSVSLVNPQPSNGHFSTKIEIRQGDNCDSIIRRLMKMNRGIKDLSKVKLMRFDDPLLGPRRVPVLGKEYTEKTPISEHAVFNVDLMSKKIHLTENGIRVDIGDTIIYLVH

Compound: CC(C)C[C@H](N)C(=O)NS(=O)(=O)OC[C@H]1O[C@@H](n2cnc3c(N)ncnc32)[C@H](O)[C@@H]1O [Leu-AMS]
- HDX-MS (with BC-LI-0198) and thermal shift [1]: HDX)-MS assays for LRS bound to BC-LI-0198 and Leu-AMS, a leucyl-sulfamoyl-adenylate analog of leucyl adenylate

Compound: Cc1c(C(C)C)c(=O)n(-c2ccc(S(=O)(=O)NCCOc3ccccc3)cc2)n1C [BC-LI-0186]
- Kd [2]: 42.1 nM
